From patent US20090099192A1, “Substituted 1H-pyrrole-2,5-diones” (Bayer CropScience AG, priority 2004, published 2009)
Blank lines part the entries; values can stand above or below the molecule they belong to.

Experiments:
[1] = system: Meloidogyne incognita; assay: Meloidogyne test (gall formation on lettuce roots); format: in vivo; conditions: for Kill rate in % after 14 d (nematicidal effect by gall formation): 20 ppm, lettuce in sand
Description: [table] To produce a suitable preparation of active compound, 1 part by weight of active compound is mixed with the stated amounts of solvent and emulsifier, and the concentrate is diluted with water to the desired concentration. Vessels are filled with sand, active compound solution, Meloidogyne incognita egg/larvae suspension and lettuce seeds. The lettuce seeds germinate and the plants develop. On the roots, galls are formed. After the desired period of time, the nematicidal effect is determined in % by means of gall formation. 100% means that no galls were found; 0% means that the number of galls on the treated plants corresponds to that of the untreated control.

[2] = system: caterpillars of the army worm (Spodoptera frugiperda); assay: Spodoptera frugiperda test (cabbage leaves dipped); format: in vivo; conditions: for Kill rate in % after 7 d: 500 ppm, leaf dip, Brassica oleracea
Description: (§1) [table] To produce a suitable preparation of active compound, 1 part by weight of active compound is mixed with the stated amount of solvent and the stated amount of emulsifier, and the concentrate is diluted with emulsifier-containing water to the desired concentration. Cabbage leaves (Brassica oleracea) are treated by being dipped into the active compound preparation of the desired concentration and populated with caterpillars of the army worm (Spodoptera frugiperda) while the leaves are still moist. After the desired period of time, the kill in % is determined. 100% means that all caterpillars have been killed; 0% means that none of the caterpillars have been killed.

[3] = logP determination by HPLC on reversed-phase column (C 18), EEC Directive 79/831 Annex V.A8; format: physicochemical; conditions: reversed-phase C 18, 43° C., acid range (0.1% aqueous phosphoric acid, acetonitrile), marked a)
Method in brief: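 Reversed-phase C18 HPLC at 43° C, per EEC Directive 79/831 Annex V.A8, acid range: 0.1% aqueous phosphoric acid with linear 10–90% acetonitrile gradient. logP derived from retention time by linear interpolation between calibrating unbranched alkan-2-ones (C3–C16) of known logP.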

[4] = system: black bean aphid (Aphis fabae); assay: Aphis fabae test; format: in vivo
Description: [table] To produce a suitable preparation of active compound, 1 part by weight of active compound is mixed with the stated amounts of solvent and emulsifier, and the concentrate is diluted with emulsifier-containing water to the desired concentration. Shoots of young broadbeans (Vicia faba) which are heavily infested by the black bean aphid (Aphis fabae) are treated by being dipped into the active compound preparation of the desired concentration. After the desired period of time, the kill in % is determined. 100% means that all aphids have been killed; 0% means that none of the aphids have been killed.

[5] = system: larvae of the mustard beetle (Phaedon cochleariae); assay: Phaedon larvae test (cabbage leaves dipped); format: in vivo
Description: as §1, with “with” for “with emulsifier-containing”, “with larvae” for “with caterpillars”, “the mustard beetle (Phaedon cochleariae)” for “the army worm (Spodoptera frugiperda)”, “all beetle larvae” for “all caterpillars”, “the beetle larvae” for “the caterpillars”

[6] = system: green peach aphid (Myzus persicae); assay: Myzus test (spray treatment, Brassica pekinensis); format: in vivo; conditions: for Kill rate in % after 5 d: 500 g/ha, spray, Brassica pekinensis disks
Description: (§2) [table] To produce a suitable preparation of active compound, 1 part by weight of active compound is mixed with the stated amounts of solvents and emulsifier, and the concentrate is diluted with emulsifier-containing water to the desired concentration. Disks of Chinese cabbage (Brassica pekinensis) which are infested by all stages of the green peach aphid (Myzus persicae) are sprayed with an active compound preparation of the desired concentration. After the desired period of time, the effect in % is determined. 100% means that all aphids have been killed; 0% means that none of the aphids have been killed.

[7] = system: cotton aphid (Aphis gossypii); assay: Aphis gossypii test; format: in vivo; conditions: for Kill rate in % after 7 d: 500 g/ha, spray, Gossypium hirsutum
Description: (§3) [table] To produce a suitable preparation of active compound, 1 part by weight of active compound is mixed with the stated amounts of solvent and emulsifier, and the concentrate is diluted with emulsifier-containing water to the desired concentration. Cotton leaves (Gossypium hirsutum) which are heavily infested by the cotton aphid (Aphis gossypii) are treated by spraying with the active compound preparation at the desired concentration. After the desired period of time, the kill in % is determined. 100% means that all animals have been killed; 0% means that none of the animals have been killed.

[8] = system: green peach aphid (Myzus persicae); assay: Myzus test (spray treatment, Brassica oleracea); format: in vivo; conditions: for Kill rate in % after 7 d: 500 g/ha, spray, Brassica oleracea
Description: as §3, with “Cabbage” for “Cotton”, “(Brassica oleracea)” for “(Gossypium hirsutum)”, “green peach” for “cotton”, “(Myzus persicae)” for “(Aphis gossypii)”

[9] = system: green peach aphid (Myzus persicae); assay: Myzus test - oral; format: in vivo; conditions: for Kill rate in % after 6 d: 20 ppm, oral (sucking)
Description: as §2, with “solvent,” for “solvents and emulsifier,”, “with” for “with emulsifier-containing”, “Vessels” for “Disks of Chinese cabbage (Brassica pekinensis) which”, “populated with” for “infested by”, “persicae), which” for “persicae)”, “treated by sucking on the” for “sprayed with an”

[10] = system: caterpillars of the army worm (Spodoptera frugiperda); assay: Spodoptera frugiperda test (corn leaf disks sprayed); format: in vivo; conditions: for Kill rate in % after 7 d: 500 g/ha, spray, Zea mays leaf disks
Description: [table] To produce a suitable preparation of active compound, 1 part by weight of active compound is mixed with the stated amounts of solvents and emulsifier, and the concentrate is diluted with emulsifier-containing water to the desired concentration. Disks of corn leaves (Zea mays) are sprayed with an active compound preparation of the desired concentration and, after drying, populated with caterpillars of the army worm (Spodoptera frugiperda). After the desired period of time, the effect in % is determined. 100% means that all caterpillars have been killed; 0% means that none of the caterpillars have been killed.

[11] = system: larvae of the mustard beetle (Phaedon cochleariae); assay: Phaedon test (spray treatment); format: in vivo; conditions: for Kill rate in % after 7 d: 500 g/ha, spray, Brassica pekinensis disks
Method in brief: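 Chinese cabbage leaf disks sprayed with compound diluted in emulsifier-containing water, dried, then infested with mustard beetle larvae. After a set period, mortality scored in %: 100% all larvae dead, 0% none dead.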

[12] = system: common spidermite (Tetranychus urticae); assay: Tetranychus test; format: in vivo; conditions: for Kill rate in % after 5 d: 500 ppm, spray, Phaseolus vulgaris disks
Description: To produce a suitable preparation of active compound, 1 part by weight of active compound is mixed with the stated amounts of solvent and emulsifier, and the concentrate is diluted with emulsifier-containing water to the desired concentration.
Disks of beans (Phaseolus vulgaris), which are infested by all stages of the common spidermite (Tetranychus urticae) are sprayed with an active compound preparation of the desired concentration.
After the desired period of time, the effect in % is determined. 100% means that all spidermites have been killed; 0% means that none of the spidermites have been killed.

[13] = system: caterpillars of the diamond back moth (Plutella xylostella); assay: Plutella test; format: in vivo
Description: as §1, with “amounts” for “amount”, “and” for “and the stated amount of”, “diamond back moth (Plutella xylostella)” for “army worm (Spodoptera frugiperda)”

SMILES: C=CCN1C(=O)C(O)=C(c2c(C)cc(C)cc2C)C1=O [Example 4]
activity in the Aphis fabae test [4]: good activity
Kill rate in % after 6 d ([4]; 1000 ppm, Vicia faba shoots dipped): 99%
activity in the Phaedon larvae test [5]: good activity
Kill rate in % after 7 d ([5]; 1000 ppm, leaf dip, Brassica oleracea): 100%
activity in the Myzus test (spray, Brassica pekinensis) [6]: good activity
Kill rate in % after 5 d [6]: 70%

SMILES: CCN1C(=O)C(OC(C)=O)=C(c2c(C)cc(C)cc2C)C1=O [Example 3]
activity in the Plutella test [13]: good activity
Kill rate in % after 7 d ([13]; 1000 ppm, leaf dip): 90%
activity in the Myzus test (spray, Brassica pekinensis) [6]: good activity
Kill rate in % after 5 d [6]: 90%

SMILES: CCN1C(=O)C(OC(=O)C(C)(C)C)=C(c2c(C)cc(C)cc2C)C1=O [Example 2, 1-ethyl-3-pivaloyloxy-4-(2,4,6-trimethylphenyl)-1H-pyrrole-2,5-dione]
melting point: 91 °C
activity in the Myzus test (spray, Brassica pekinensis) [6]: good activity
Kill rate in % after 5 d [6]: 90%

SMILES: CC(C)(C)C(=O)OC1=C(c2ccccc2C(F)(F)F)C(=O)N(C2CCCC(C(F)(F)F)C2)C1=O (stereo not drawn) [Example 220]
activity in the Meloidogyne test [1]: good activity
Kill rate in % after 14 d (nematicidal effect by gall formation) [1]: 80%
activity in the Phaedon test (spray treatment) [11]: good activity
Kill rate in % after 7 d [11]: 100%
activity in the Myzus test (spray, Brassica pekinensis) [6]: good activity
Kill rate in % after 5 d [6]: 100%

Further lines, with some results ahead:

logP [3]: logP = 3.64^a)
SMILES: O=C1C(O)=C(c2ccc(C(F)(F)F)cc2)C(=O)N1c1ccc(OC(F)(F)F)cc1 [Example 10]
activity in the Meloidogyne test [1]: good activity
Kill rate in % after 14 d (nematicidal effect by gall formation) [1]: 99%
activity in the Spodoptera frugiperda test (leaf dip) [2]: good activity
Kill rate in % after 7 d [2]: 100%

melting point: 168 °C
SMILES: CCN1C(=O)C(O)=C(c2c(C)cc(C)cc2C)C1=O [Example 1, 1-ethyl-3-hydroxy-4-(2,4,6-trimethylphenyl)-1H-pyrrole-2,5-dione]

logP [3]: logP = 5.34^a)
SMILES: CC(C)(C)C(=O)OC1=C(c2ccccc2Br)C(=O)N(C2CCCC(C(F)(F)F)C2)C1=O (stereo not drawn) [Example 185]
activity in the Aphis gossypii test [7]: good activity
Kill rate in % after 7 d [7]: 95%
activity in the Myzus test (spray, Brassica oleracea) [8]: good activity
Kill rate in % after 7 d [8]: 95%
activity in the Myzus test - oral [9]: good activity
Kill rate in % after 6 d [9]: 100%
activity in the Spodoptera frugiperda test (spray) [10]: good activity
Kill rate in % after 7 d [10]: 100%
activity in the Phaedon test (spray treatment) [11]: good activity
Kill rate in % after 7 d [11]: 100%
activity in the Myzus test (spray, Brassica pekinensis) [6]: good activity
Kill rate in % after 5 d [6]: 100%
activity in the Tetranychus test [12]: good activity
Kill rate in % after 5 d [12]: 80%

logP [3]: logP = 5.29^a)
SMILES: CC(C)(C)C(=O)OC1=C(c2ccccc2Cl)C(=O)N(C2CCCC(C(F)(F)F)C2)C1=O (stereo not drawn) [Example 201]
activity in the Aphis gossypii test [7]: good activity
Kill rate in % after 7 d [7]: 99%
activity in the Myzus test (spray, Brassica oleracea) [8]: good activity
Kill rate in % after 7 d [8]: 98%
activity in the Myzus test - oral [9]: good activity
Kill rate in % after 6 d [9]: 100%
activity in the Spodoptera frugiperda test (spray) [10]: good activity
Kill rate in % after 7 d [10]: 100%
activity in the Phaedon test (spray treatment) [11]: good activity
Kill rate in % after 7 d [11]: 100%
activity in the Myzus test (spray, Brassica pekinensis) [6]: good activity
Kill rate in % after 5 d [6]: 100%
activity in the Tetranychus test [12]: good activity
Kill rate in % after 5 d [12]: 100%

logP [3]: logP = 3.04^a)
SMILES: N#Cc1ccc(C2=C(O)C(=O)N(C3CCCC(C(F)(F)F)C3)C2=O)cc1 (stereo not drawn) [Example 215]
activity in the Meloidogyne test [1]: good activity
Kill rate in % after 14 d (nematicidal effect by gall formation) [1]: 80%
activity in the Spodoptera frugiperda test (leaf dip) [2]: good activity
Kill rate in % after 7 d [2]: 85%
